Assay results: paper PMC6072100, “Exploring the links between peptoid antibacterial activity and toxicity” (MedChemComm, 2017)
Where “and” joins values, the source holds several entries; their conditions need not be identical. Identical values can stand only once. Like-named read-outs stand apart in the source and are kept apart here. Square brackets hold non-standard residues; d marks the D form. Peptide text beside a SMILES is read from it. Gly(Nα-4-Cl-benzyl) = O=C(O)CNCc1ccc(Cl)cc1; N(4-F-Bzl)Gly = O=C(O)CNCc1ccc(F)cc1; Gly(N-(CH2)6NH2) = NCCCCCCNCC(=O)O; Nspe = C[C@H](NCC(=O)O)c1ccccc1; NhArg = N=C(N)NCCCCNCC(=O)O; Nphe = O=C(O)CNCc1ccccc1; Nlys = NCCCCNCC(=O)O

Experiments:
Format in all cases: cell-based
[1] = system: Staphylococcus aureus (3R7089 strain Oxford/ATCC9144)
Procedure, shortened: (§1)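 Peptoids (DMSO stock, diluted in Iso-sensitest broth) are serially halved to give 2–100 µM final in wells with equal volume of bacterial inoculum, standardised to 0.5 McFarland then diluted 10×. After 16 h at 37 °C with shaking, absorbance gives growth; triplicates.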

[2] = system: Escherichia coli K-12 wild-type strain (W3110/ATCC27325); details: lowest concentration completely inhibiting growth, 37 °C, 16 h; range 2–100 μM
Procedure, shortened: as §1

[3] = system: Pseudomonas aeruginosa PA01 (ATCC 15692)
Procedure, shortened: as §1

[4] = system: Staphylococcus epidermidis (laboratory strain from clinical isolate); details: 16 h
Procedure, shortened: as §1

[5] = lowest concentration completely inhibiting growth, 37 °C, 16 h, range 2–100 μM
[6] = lowest concentration completely inhibiting growth, 37 °C, range 2–100 μM
[7] = laboratory strain from clinical isolate

`NCCCCNCC(=O)N(CC(=O)N(CC(=O)N(CCCCN)CC(=O)N(CC(=O)N(CC(=O)N(CCCCN)CC(=O)N(CC(=O)N(CC(=O)N(CCCCN)CC(=O)N(CC(=O)N(CC(N)=O)Cc1ccc(Cl)cc1)Cc1ccc(Cl)cc1)Cc1ccc(Cl)cc1)Cc1ccc(Cl)cc1)Cc1ccc(Cl)cc1)Cc1ccc(Cl)cc1)Cc1ccc(Cl)cc1)Cc1ccc(Cl)cc1` [Peptoid 20, (NLysNpcbNpcb)4] (H-[Nlys][Gly(Nα-4-Cl-benzyl)][Gly(Nα-4-Cl-benzyl)][Nlys][Gly(Nα-4-Cl-benzyl)][Gly(Nα-4-Cl-benzyl)][Nlys][Gly(Nα-4-Cl-benzyl)][Gly(Nα-4-Cl-benzyl)][Nlys][Gly(Nα-4-Cl-benzyl)][Gly(Nα-4-Cl-benzyl)]-NH2) was tested, and the “MIC S. aureus” value [1, 5] was 25 µM, the “MIC E. coli” value [2] was 100 µM and > 100 µM and the “MIC P. aeruginosa” value ([3]; ATCC 15692, 16 h) was greater than 100 µM. The “MIC P. aeruginosa” value [3, 5] was 100 µM and the “MIC S. epidermidis” value [4, 6] was 6 µM.
`NCCCCNCC(=O)N(CC(=O)N(CC(=O)N(CCCCN)CC(=O)N(CC(=O)N(CC(=O)N(CCCCN)CC(=O)N(CC(=O)N(CC(=O)N(CCCCN)CC(=O)N(CC(=O)N(CC(N)=O)Cc1ccccc1)Cc1ccccc1)Cc1ccccc1)Cc1ccccc1)Cc1ccccc1)Cc1ccccc1)Cc1ccccc1)Cc1ccccc1` [Peptoid 4, (NLysNpheNphe)4] (H-[Nlys][Nphe][Nphe][Nlys][Nphe][Nphe][Nlys][Nphe][Nphe][Nlys][Nphe][Nphe]-NH2) was tested, and the “MIC S. aureus” value [1, 5] was 3 µM, the “MIC E. coli” value [2] was 13 µM and the “MIC P. aeruginosa” value [3, 5] was 50 µM. For the same compound, the “MIC S. epidermidis” value [4, 6] was 2 µM.
For `C[C@@H](c1ccccc1)N(CC(N)=O)C(=O)CN(C(=O)CN(CCCCNC(=N)N)C(=O)CN(C(=O)CN(C(=O)CN(CCCCNC(=N)N)C(=O)CN(C(=O)CN(C(=O)CN(CCCCNC(=N)N)C(=O)CN(C(=O)CN(C(=O)CNCCCCNC(=N)N)[C@@H](C)c1ccccc1)[C@@H](C)c1ccccc1)[C@@H](C)c1ccccc1)[C@@H](C)c1ccccc1)[C@@H](C)c1ccccc1)[C@@H](C)c1ccccc1)[C@@H](C)c1ccccc1` [Peptoid 34, (NhArgNspeNspe)4] (H-[NhArg][Nspe][Nspe][NhArg][Nspe][Nspe][NhArg][Nspe][Nspe][NhArg][Nspe][Nspe]-NH2), the “MIC S. aureus” value [1, 5] was 1 µM, the “MIC E. coli” value [2] was 6 µM and the “MIC P. aeruginosa” value [3, 5] was 13 µM. The “MIC S. epidermidis” value [4, 6] was 1 µM.
`C[C@@H](c1ccccc1)N(CC(N)=O)C(=O)CN(C(=O)CN(CCCCN)C(=O)CN(Cc1ccc(F)cc1)C(=O)CN(Cc1ccc(F)cc1)C(=O)CN(CCCCN)C(=O)CN(C(=O)CN(C(=O)CN(CCCCN)C(=O)CN(Cc1ccc(F)cc1)C(=O)CN(Cc1ccc(F)cc1)C(=O)CNCCCCN)[C@@H](C)c1ccccc1)[C@@H](C)c1ccccc1)[C@@H](C)c1ccccc1` [Peptoid 28, [(NLysNpfbNpfb)(NLysNspeNspe)]2] was tested, and the “MIC S. aureus” value [1, 5] was 2 µM, the “MIC E. coli” value [2] was 6 µM and the “MIC P. aeruginosa” value [3, 5] was 50 µM. The “MIC S. epidermidis” value [4, 7] was less than 1 µM and the “MIC S. epidermidis” value [4, 6] was 1 µM.
For `CCCCCNCC(=O)N(CC(=O)N(CC(=O)N(CCCCC)CC(=O)N(CC(=O)N(CC(=O)N(CCCCN)CC(=O)N(CC(=O)N(CC(=O)N(CCCCN)CC(=O)N(CC(=O)N(CC(N)=O)[C@@H](C)c1ccccc1)[C@@H](C)c1ccccc1)[C@@H](C)c1ccccc1)[C@@H](C)c1ccccc1)[C@@H](C)c1ccccc1)[C@@H](C)c1ccccc1)[C@@H](C)c1ccccc1)[C@@H](C)c1ccccc1` [Peptoid 31, (NamyNspeNspe)2(NLysNspeNspe)2], the “MIC S. aureus” value [1, 5] was 2 µM, the “MIC E. coli” value [2] was greater than 100 µM and the “MIC P. aeruginosa” value ([3]; ATCC 15692, 16 h) was greater than 100 µM. For the same compound, the “MIC P. aeruginosa” value [3, 5] was 100 µM and the “MIC S. epidermidis” value [4, 6] was 1 µM.
For `C[C@@H](c1ccccc1)N(CC(N)=O)C(=O)CN(C(=O)CN(CCCCN)C(=O)CN(Cc1ccc(F)cc1)C(=O)CN(Cc1ccc(F)cc1)C(=O)CN(CCCCN)C(=O)CN(C(=O)CN(C(=O)CNCCCCN)[C@@H](C)c1ccccc1)[C@@H](C)c1ccccc1)[C@@H](C)c1ccccc1` [Peptoid 29, (NLysNspeNspe)(NLysNpfbNpfb)(NLysNspeNspe)], the “MIC S. aureus” value [1, 5] was 3 µM, the “MIC E. coli” value [2] was 13 µM and the “MIC P. aeruginosa” value [3, 5] was 25 µM. The “MIC S. epidermidis” value [4, 6] was 2 µM.
In the case of `NCCCCNCC(=O)N(CC(=O)N(CC(=O)N(CCCCN)CC(=O)N(CC(=O)N(CC(=O)N(CCCCN)CC(=O)N(CC(=O)N(CC(=O)N(CCCCN)CC(=O)N(CC(=O)N(CC(N)=O)Cc1ccc(F)cc1)Cc1ccc(F)cc1)Cc1ccc(F)cc1)Cc1ccc(F)cc1)Cc1ccc(F)cc1)Cc1ccc(F)cc1)Cc1ccc(F)cc1)Cc1ccc(F)cc1` [Peptoid 22, (NLysNpfbNpfb)4] (H-[Nlys][N(4-F-Bzl)Gly][N(4-F-Bzl)Gly][Nlys][N(4-F-Bzl)Gly][N(4-F-Bzl)Gly][Nlys][N(4-F-Bzl)Gly][N(4-F-Bzl)Gly][Nlys][N(4-F-Bzl)Gly][N(4-F-Bzl)Gly]-NH2), the “MIC S. aureus” value ([1]; ATCC9144, 16 h) is reported as 2 µM, the “MIC S. aureus” value [1, 5] is reported as 2 µM and the “MIC E. coli” value [2] is reported as 13 µM. For the same compound, the “MIC P. aeruginosa” value [3, 5] was 25 µM and the “MIC S. epidermidis” value [4, 6] was 1 µM.
For `NCCCCNCC(=O)N(CC(=O)N(CC(=O)N(CCCCN)CC(=O)N(CC(=O)N(CC(N)=O)Cc1ccccc1)Cc1ccccc1)Cc1ccccc1)Cc1ccccc1` [Peptoid 6, (NLysNpheNphe)2] (H-[Nlys][Nphe][Nphe][Nlys][Nphe][Nphe]-NH2), the “MIC S. aureus” value ([1]; ATCC9144, 16 h) was greater than 100 µM, the “MIC S. aureus” value [1, 5] was 100 µM and the “MIC E. coli” value [2] was greater than 100 µM. The “MIC P. aeruginosa” value ([3]; ATCC 15692, 16 h) was greater than 100 µM, the “MIC P. aeruginosa” value [3, 5] was 100 µM and the “MIC S. epidermidis” value [4, 7] was greater than 100 µM. The “MIC S. epidermidis” value [4, 6] was 100 µM.
`C[C@@H](c1ccccc1)N(CC(N)=O)C(=O)CN(C(=O)CN(CCN)C(=O)CN(C(=O)CN(C(=O)CN(CCN)C(=O)CN(C(=O)CN(C(=O)CNCCN)[C@@H](C)c1ccccc1)[C@@H](C)c1ccccc1)[C@@H](C)c1ccccc1)[C@@H](C)c1ccccc1)[C@@H](C)c1ccccc1` [Peptoid 17, (NaeNspeNspe)3] was tested, and the “MIC S. aureus” value [1, 5] was 2 µM, the “MIC E. coli” value [2] was 25 µM and the “MIC P. aeruginosa” value [3, 5] was 100 µM and > 100 µM. The “MIC S. epidermidis” value [4, 6] was 13 µM.
For `NCCCCNCC(=O)N(CC(=O)N(CC(=O)N(CCCCN)CC(=O)N(CC(=O)N(CC(=O)N(CCCCN)CC(=O)N(CC(=O)N(CC(N)=O)Cc1ccc(Cl)cc1)Cc1ccc(Cl)cc1)Cc1ccc(Cl)cc1)Cc1ccc(Cl)cc1)Cc1ccc(Cl)cc1)Cc1ccc(Cl)cc1` [Peptoid 21, (NLysNpcbNpcb)3] (H-[Nlys][Gly(Nα-4-Cl-benzyl)][Gly(Nα-4-Cl-benzyl)][Nlys][Gly(Nα-4-Cl-benzyl)][Gly(Nα-4-Cl-benzyl)][Nlys][Gly(Nα-4-Cl-benzyl)][Gly(Nα-4-Cl-benzyl)]-NH2), the “MIC S. aureus” value [1, 5] was 3 µM, the “MIC E. coli” value [2] was 50 µM and the “MIC P. aeruginosa” value [3, 5] was 25 µM. The “MIC S. epidermidis” value [4, 6] was 2 µM.
`NCCCCNCC(=O)N(CC(=O)N(CC(=O)N(CCCCN)CC(=O)N(CC(=O)N(CC(=O)N(CCCCN)CC(=O)N(CC(=O)N(CC(N)=O)Cc1ccc(F)cc1)Cc1ccc(F)cc1)Cc1ccc(F)cc1)Cc1ccc(F)cc1)Cc1ccc(F)cc1)Cc1ccc(F)cc1` [Peptoid 23, (NLysNpfbNpfb)3] (H-[Nlys][N(4-F-Bzl)Gly][N(4-F-Bzl)Gly][Nlys][N(4-F-Bzl)Gly][N(4-F-Bzl)Gly][Nlys][N(4-F-Bzl)Gly][N(4-F-Bzl)Gly]-NH2) was tested, and the “MIC S. aureus” value [1, 5] was 3 µM, the “MIC E. coli” value [2] was 13 µM and the “MIC P. aeruginosa” value [3, 5] was 25 µM. For the same compound, the “MIC S. epidermidis” value [4, 6] was 3 µM.
With `CCCCCN(CC(=O)N(CC(=O)N(CC(=O)N(CCCCN)CC(=O)N(CC(=O)N(CC(N)=O)[C@@H](C)c1ccccc1)[C@@H](C)c1ccccc1)[C@@H](C)c1ccccc1)[C@@H](C)c1ccccc1)C(=O)CN(C(=O)CN(C(=O)CN(CCCCN)C(=O)CN(C(=O)CN(C(=O)CNCCCCN)[C@@H](C)c1ccccc1)[C@@H](C)c1ccccc1)[C@@H](C)c1ccccc1)[C@@H](C)c1ccccc1` [Peptoid 32, (NLysNspeNspe)2(NamyNspeNspe)(NLysNspeNspe)] the “MIC S. aureus” value [1, 5] was 6 µM, the “MIC E. coli” value [2] was greater than 100 µM and the “MIC P. aeruginosa” value ([3]; ATCC 15692, 16 h) was greater than 100 µM. The “MIC P. aeruginosa” value [3, 5] was 100 µM and the “MIC S. epidermidis” value [4, 6] was 2 µM.
For `NCCCCCCNCC(=O)N(CC(=O)N(CC(=O)N(CCCCCCN)CC(=O)N(CC(=O)N(CC(N)=O)Cc1ccccc1)Cc1ccccc1)Cc1ccccc1)Cc1ccccc1` [Peptoid 3, (NahNpheNphe)2] (H-[Gly(N-(CH2)6NH2)][Nphe][Nphe][Gly(N-(CH2)6NH2)][Nphe][Nphe]-NH2), the “MIC S. aureus” value ([1]; ATCC9144, 16 h) was greater than 100 µM, the “MIC E. coli” value [2] was greater than 100 µM and the “MIC P. aeruginosa” value ([3]; ATCC 15692, 16 h) was greater than 100 µM. The “MIC S. epidermidis” value [4, 7] was greater than 100 µM.
With (NhArgNmfbNmfb)4 [Peptoid 36] the “MIC S. aureus” value [1, 5] was 2 µM, the “MIC E. coli” value [2] was 13 µM and the “MIC P. aeruginosa” value [3, 5] was 13 µM. The “MIC S. epidermidis” value [4, 6] was 2 µM.
`C[C@@H](c1ccccc1)N(CC(N)=O)C(=O)CN(Cc1ccc(F)cc1)C(=O)CN(CCCCN)C(=O)CN(C(=O)CN(Cc1ccc(F)cc1)C(=O)CN(CCCCN)C(=O)CN(C(=O)CN(Cc1ccc(F)cc1)C(=O)CNCCCCN)[C@@H](C)c1ccccc1)[C@@H](C)c1ccccc1` [Peptoid 27, (NLysNpfbNspe)3] was tested, and the “MIC S. aureus” value [1, 5] was 3 µM, the “MIC E. coli” value [2] was 25 µM and the “MIC P. aeruginosa” value [3, 5] was 25 µM. For the same compound, the “MIC S. epidermidis” value [4, 6] was 2 µM.
In the case of `C[C@@H](c1ccccc1)N(CC(N)=O)C(=O)CN(C(=O)CN(CCN)C(=O)CN(C(=O)CN(C(=O)CNCCN)[C@@H](C)c1ccccc1)[C@@H](C)c1ccccc1)[C@@H](C)c1ccccc1` [Peptoid 18, (NaeNspeNspe)2], the “MIC S. aureus” value ([1]; ATCC9144, 16 h) is reported as greater than 100 µM, the “MIC S. aureus” value [1, 5] is reported as 100 µM and the “MIC E. coli” value [2] is reported as greater than 100 µM. For the same compound, the “MIC P. aeruginosa” value ([3]; ATCC 15692, 16 h) was greater than 100 µM, the “MIC P. aeruginosa” value [3, 5] was 100 µM and the “MIC S. epidermidis” value [4, 7] was greater than 100 µM. The “MIC S. epidermidis” value [4, 6] was 100 µM.
